Measurements as given in ChEMBL document CHEMBL1201862, “PubChem BioAssay data set” (2004).
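The compound was tested at five concentrations on cells cultured in 96-well plates, with a 48-hour exposure period. GI50 = concentration required for 50% inhibition of growth.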 Active and inactive are the calls of the source. Rule as the data show it: active = GI50 up to about 1.1 µM and inactive = higher.

Columns and labels:
Assay in all cases: NCI anticancer screen, dose series, 48 h
T47D = system: T47D
HCC 2998 = system: HCC 2998
NCI-H23 = system: NCI-H23
IGROV-1 = system: IGROV-1
A549 = system: A549
U-251 = system: U-251
PC-3 = system: PC-3
NCI-H226 = system: NCI-H226
M19-MEL = system: M19-MEL
NCI-H522 = system: NCI-H522
SF-268 = system: SF-268
SR = system: SR
NCI/ADR-RES = system: NCI/ADR-RES
SK-OV-3 = system: SK-OV-3
CCRF-CEM = system: CCRF-CEM
RPMI-8226 = system: RPMI-8226
BT-549 = system: BT-549
MDA-MB-231 = system: MDA-MB-231
OVCAR-4 = system: OVCAR-4
OVCAR-8 = system: OVCAR-8

Row | Structure (SMILES) | GI50 (T47D) | GI50 (HCC 2998) | GI50 (NCI-H23) | GI50 (IGROV-1) | GI50 (A549) | GI50 (U-251) | GI50 (PC-3) | GI50 (NCI-H226) | GI50 (M19-MEL) | GI50 (NCI-H522) | GI50 (SF-268) | GI50 (SR) | GI50 (NCI/ADR-RES) | GI50 (SK-OV-3) | GI50 (CCRF-CEM) | GI50 (RPMI-8226) | GI50 (BT-549) | GI50 (MDA-MB-231) | GI50 (OVCAR-4) | GI50 (OVCAR-8)
1 | CN(N=O)C(=O)N[C@H]1C(O)O[C@H](CO)[C@@H](O)[C@@H]1O (some centres undefined) | 611 µM (inactive) | 533 µM (inactive) | 614 µM (inactive) | 618 µM (inactive) | 571 µM (inactive) | 593 µM (inactive) | > 750 µM (inactive) | 596 µM (inactive) | 475 µM (inactive) | 578 µM (inactive) | 608 µM (inactive) | 537 µM (inactive) | 740 µM (inactive) | 571 µM (inactive) | 485 µM (inactive) | 565 µM (inactive) | > 750 µM (inactive) | > 750 µM (inactive) | 590 µM (inactive) | 617 µM (inactive)
2 | O=C1C=CC2(C=C1)C[C@H](NC(=O)OCc1ccccc1)C(=O)O2 | 15.9 µM (inactive) | 19.7 µM (inactive) | 16.1 µM (inactive) | 19.8 µM (inactive) | 38.1 µM (inactive) | 19.3 µM (inactive) | 16.1 µM (inactive) | 62.4 µM (inactive) | 18.4 µM (inactive) | 3.3 µM (inactive) | 17.2 µM (inactive) | 1.08 µM (active) |  | > 67.1 µM (inactive) | 1.08 µM (active) | 3.6 µM (inactive) | 18 µM (inactive) | 17.5 µM (inactive) | 18.2 µM (inactive) | 16 µM (inactive)
3 | CCOC(=O)NC(=O)c1cn(CCCOC(=O)CCCCCCCCCCC(=O)OCCCn2cc(C(=O)NC(=O)OCC)c(=O)n(C)c2=O)c(=O)n(C)c1=O |  | > 100 µM (inactive) | > 100 µM (inactive) | > 100 µM (inactive) | > 100 µM (inactive) | > 100 µM (inactive) |  | > 100 µM (inactive) | > 100 µM (inactive) | > 100 µM (inactive) | > 100 µM (inactive) | > 100 µM (inactive) |  | > 100 µM (inactive) | > 100 µM (inactive) | > 100 µM (inactive) |  |  | > 100 µM (inactive) | > 100 µM (inactive)
